Test results as given in US9920030B2 (priority 2006, dated 2018).
Like-named read-outs stand apart in the source and are kept apart here.

What was measured:
Format in all cases: in vivo
[1] = tested on: Plasmopara vilicola (the causal agent of grape downy mildew); assay: Test A: grape downy mildew, test suspension sprayed on grape seedlings after inoculation, visual disease rating; settings: for pest or weed control at 40 ppm: Plasmopara, 144 h, read-out: Percent Disease Control, Test A
In short: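 Compounds dissolved in acetone (3% of final volume), suspended in 50/50 acetone/water with 250 ppm Trem 014; 200 ppm to run-off equals 500 g/ha. Seedlings inoculated, held saturated at 20 °C 24 h, then sprayed; 5 days at 20 °C, 24 h saturated, then visual rating, 0–100% control versus untreated.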

[2] = tested on: Phytophthora infestans (the causal agent of tomato late blight); assay: whole plant or invertebrate; settings: for pest or weed control at 40 ppm: Phytophthora infestans, 144 h, read-out: Percent Disease Control, Test B
[3] = tested on: Phytophthora infestans (the causal agent of tomato late blight); assay: whole plant or invertebrate; settings: for pest or weed control at 40 ppm: Phytophthora infestans, 96 h, read-out: Percent Disease Control, Test C
[4] = compounds without asterisk (application rate not given), 100 = 100% disease control, 0 = no control relative to the controls

Row | Compound | Percent Disease Control, Test A [1, 4] [%] | Percent Disease Control, Test B [2, 4] [%] | Percent Disease Control, Test C [3, 4] [%] | Percent Disease Control, Test A ([1]; * tested at 40 ppm) [%] | Percent Disease Control, Test B ([2]; * tested at 40 ppm) [%] | Percent Disease Control, Test C ([3]; * tested at 40 ppm) [%] | other results
1 | Cc1cc(C(F)(F)F)nn1CC(=O)N1CCC(c2nc(C3=NOC(C#N)C3)cs2)CC1 (stereo not drawn) [Compound 66] | 48 | 63 | 73 | – | – | – | –
2 | Cc1cc(C(F)(F)F)nn1CC(=O)N1CCC(c2nc(C3=NOC4(CCCC4)C3)cs2)CC1 [Compound 67] | – | – | – | 100 | 100 | 99 | –
3 | Cc1cc(C(F)(F)F)nn1CC(=O)N1CCC(c2nc(-c3nc(-c4ccccc4)no3)cs2)CC1 [Compound 68] | 96 | 95 | 88 | – | – | – | –
4 | Cc1cc(C(F)(F)F)nn1CC(=O)N1CCC(c2nc(-c3ccc(Oc4ccccc4)cc3)cs2)CC1 [Compound 72] | 72 | 100 | 52 | – | – | – | –
5 | Cc1cc(C(F)(F)F)nn1CC(=O)N1CCC(c2nc(-c3cccc4ccccc34)cs2)CC1 [Compound 73] | 27 | 40 | 0 | – | – | – | –
6 | Cc1cc(C(F)(F)F)nn1CC(=O)N1CCC(c2nc(-c3cccc(-c4ccccc4)c3)cs2)CC1 [Compound 74] | 50 | 40 | 0 | – | – | – | –
7 | Cc1cc(C(F)(F)F)nn1CC(=O)N1CCC(c2nc(-c3cccc(Oc4ccccc4)c3)cs2)CC1 [Compound 75] | 72 | 24 | 0 | – | – | – | –
8 | Cc1cc(C(F)(F)F)nn1CC(=O)N1CCC(c2nc(-c3ccn(-c4ccccc4)n3)cs2)CC1 [Compound 76] | 72 | 92 | 67 | – | – | – | –
9 | Cc1ccc(-n2cc(-c3csc(C4CCN(C(=O)Cn5nc(C(F)(F)F)cc5C)CC4)n3)nn2)cc1 [Compound 77] | 87 | 100 | 99 | – | – | – | –
10 | Cc1cc(C(F)(F)F)nn1CC(=O)N1CCC(c2nc(-c3ccnn3-c3ccccc3)cs2)CC1 [Compound 78] | 0 | 0 | 0 | – | – | – | –
11 | Cc1cc(C(F)(F)F)nn1CC(=O)N1CCC(c2nc(C3=NO[C@@H](c4ccccc4F)C3)cs2)CC1 [Compound 79] | 100 | 100 | 66 | – | – | – | –
12 | COC1ON=C(c2csc(C3CCN(C(=O)Cn4nc(C(F)(F)F)cc4C)CC3)n2)CC1c1ccccc1 (stereo not drawn) [Compound 81] | 93 | 92 | 77 | – | – | – | –
13 | Cc1cc(C(F)(F)F)nn1CC(=O)N1CCC(c2nc(-c3nn(-c4ccccc4)c(=O)[nH]3)cs2)CC1 [Compound 82] | 0 | 88 | 26 | – | – | – | –
14 | Cc1cc(C(F)(F)F)nn1CC(=O)N1CCC(c2nc(-c3ccc(-c4ccccc4)o3)cs2)CC1 [Compound 83] | 46 | 92 | 0 | – | – | – | –
15 | Cc1cc(C(F)(F)F)nn1CC(=O)N1CCC(c2nc(-c3csc(-c4ccccc4)n3)cs2)CC1 [Compound 84] | 67 | 33 | 0 | – | – | – | –
16 | Cc1cc(C(F)(F)F)nn1CC(=O)N1CCC(c2nc(-c3ccc(-c4ccccc4)s3)cs2)CC1 [Compound 85] | 85 | 70 | 0 | – | – | – | –
17 | Cc1cc(C(F)(F)F)nn1CC(=O)N1CCC(c2nc(-c3cc(-c4ccc(Cl)cc4Cl)no3)cs2)CC1 [Compound 86] | 83 | 79 | 14 | – | – | – | –
18 | Cc1cc(C(F)(F)F)nn1CC(=O)N1CCC(c2nc(-c3cc(-c4ccc(Cl)c(Cl)c4)no3)cs2)CC1 [Compound 87] | 76 | 44 | 0 | – | – | – | –
19 | Cc1cc(C(F)(F)F)nn1CC(=O)N1CCC(c2nc(C3=NOC(c4ccc5ccccc5c4)C3)cs2)CC1 (stereo not drawn) [Compound 88] | – | – | – | 99 | 100 | 99 | –

Row | Compound | Percent Disease Control, Test A [1, 4] [%] | Percent Disease Control, Test B [2, 4] [%] | Percent Disease Control, Test C [3, 4] [%] | Percent Disease Control, Test A ([1]; * tested at 40 ppm) [%] | Percent Disease Control, Test B ([2]; * tested at 40 ppm) [%] | Percent Disease Control, Test C ([3]; * tested at 40 ppm) [%] | other results
20 | Cc1cc(C(F)(F)F)nn1CC(=O)N1CCC(c2nc(C3=NOC(c4ccc(C(C)(C)C)cc4)C3)cs2)CC1 (stereo not drawn) [Compound 91] | – | – | – | 99 | 100 | 91 | –
21 | Cc1cc(C(F)(F)F)nn1CC(=O)N1CCC(c2nc(C3=NCC(c4ccccc4)N3)cs2)CC1 (stereo not drawn) [Compound 92] | – | – | – | 13 | 33 | 9 | –
22 | Cc1cc(C(F)(F)F)nn1CC(=O)N1CCC(c2nc(C3=NOC(c4ccc(F)cc4)C3)cs2)CC1 (stereo not drawn) [Compound 96] | – | – | – | 100 | 100 | 99 | –
23 | Cc1cc(C(F)(F)F)nn1CC(=O)N1CCC(c2nc(C3=NOC(c4ccc(C(F)(F)F)cc4)C3)cs2)CC1 (stereo not drawn) [Compound 97] | – | – | – | 99 | 100 | 95 | –
24 | Cc1cc(C(F)(F)F)nn1CC(=O)N1CCC(c2nc(C3=NOC(c4ccccn4)C3)cs2)CC1 (stereo not drawn) [Compound 98, 1-[4-[4-(4,5-dihydro-5-(2-pyridinyl)-3-isoxazolyl)-2-thiazolyl]-1-piperidinyl]-2-[5-methyl-3-(trifluoromethyl)-1H-pyrazol-1-yl]ethanone] | – | – | – | – | – | – | pest or weed control at 40 ppm ([1]; * tested at 40 ppm): 77%; pest or weed control at 40 ppm [2]: 100%; pest or weed control at 40 ppm [3]: 99%
25 | Cc1cc(C(F)(F)F)nn1CC(=O)N1CCC(c2nc(C3=NC4CCCCC4N3)cs2)CC1 (stereo not drawn) [Compound 99] | 31 | 33 | 0 | – | – | – | –
26 | Cc1cc(C(F)(F)F)nn1CC(=O)N1CCC(c2nc(C3=NOC(c4ccccc4)(C(C)C)C3)cs2)CC1 (stereo not drawn) [Compound 100] | – | – | – | 100 | 100 | 99 | –
27 | CCCC1(c2ccccc2)CC(c2csc(C3CCN(C(=O)Cn4nc(C(F)(F)F)cc4C)CC3)n2)=NO1 (stereo not drawn) [Compound 101] | – | – | – | 100 | 100 | 99 | –
28 | Cc1cc(C(F)(F)F)nn1CC(=O)N1CCC(c2nc(C3=NOC4(CCSc5ccccc54)C3)cs2)CC1 (stereo not drawn) [Compound 102, 1-[4-[4-(2,3-dihydrospiro[4H-1-benzothiopyran-4,5′(4′H)-isoxazol]-3′-yl)-2-thiazolyl]-1-piperidinyl]-2-[5-methyl-3-(trifluoromethyl)-1H-pyrazol-1-yl]ethanone] | – | – | – | – | – | – | pest or weed control at 40 ppm ([1]; * tested at 40 ppm): 100%; pest or weed control at 40 ppm [2]: 100%; pest or weed control at 40 ppm [3]: 99%
29 | Cc1cc(C(F)(F)F)nn1CC(=O)N1CCC(c2nc(C3=NOC(c4ccccc4)(C4CC4)C3)cs2)CC1 (stereo not drawn) [Compound 103] | – | – | – | 100 | 100 | 99 | –
30 | Cc1cc(C(F)(F)F)nn1CC(=O)N1CCC(c2nc(C3=NOC4(CCC(c5ccccc5)CC4)C3)cs2)CC1 (stereo not drawn) [Compound 104] | 100 | 100 | 99 | – | – | – | –
31 | CCC1(c2ccccc2)CC(c2csc(C3CCN(C(=O)Cn4nc(C(F)(F)F)cc4C)CC3)n2)=NO1 (stereo not drawn) [Compound 105] | – | – | – | 100 | 100 | 99 | –
32 | Cc1cc(C(F)(F)F)nn1CC(=O)N1CCC(c2nc(C3=NOC(c4ccc(-c5ccccc5)cc4)C3)cs2)CC1 (stereo not drawn) [Compound 106] | – | – | – | 80 | 85 | 24 | –
33 | O=C(Cn1nc(C(F)(F)F)cc1Cl)N1CCC(c2nc(C3=NOC(c4ccccc4)C3)cs2)CC1 (stereo not drawn) [Compound 107, 2-[5-chloro-3-(trifluoromethyl)-1H-pyrazol-1-yl]-1-[4-[4-(4,5-dihydro-5-phenyl-3-isoxazolyl)-2-thiazolyl]-1-piperidinyl]ethanone] | – | – | – | – | – | – | pest or weed control at 40 ppm ([1]; * tested at 40 ppm): 100%; pest or weed control at 40 ppm [2]: 100%; pest or weed control at 40 ppm [3]: 99%
34 | Cc1cc(C(F)(F)F)nn1CC(=O)N1CCC(c2nc(C3=NC(c4ccccc4)C(c4ccccc4)N3)cs2)CC1 (stereo not drawn) [Compound 108] | 0 | 58 | 0 | – | – | – | –
35 | Cc1cc(C(F)(F)F)nn1CC(=O)N1CCC(c2nc(C3=NOC4(CCCc5sccc54)C3)cs2)CC1 (stereo not drawn) [Compound 109] | – | – | – | 100 | 100 | 98 | –
36 | Cc1cc(C(F)(F)F)nn1CC(=O)N1CCC(c2nc(C3=NOC(c4ccc(O)cc4)C3)cs2)CC1 (stereo not drawn) [Compound 110] | – | – | – | 97 | 100 | 99 | –
37 | Cc1cc(C(F)(F)F)nn1CC(=O)N1CCC(c2nc(C3=NOC(c4cnccn4)C3)cs2)CC1 (stereo not drawn) [Compound 111] | – | – | – | 97 | 100 | 97 | –
38 | Cc1cc(C(F)(F)F)nn1CC(=O)N1CCC(c2nc(C3=NOC(CN4Cc5cccc(Cl)c5S4(=O)=O)C3)cs2)CC1 (stereo not drawn) [Compound 112] | – | – | – | 76 | 100 | 68 | –
